Reference: the kinase profiling compilation of Christmann-Franck et al. (2016)

Key:
Assay in all cases: KINOMEscan competition binding
Conditions in all cases: compound 10.0 µM
[1] = target: CAMK1G (human) (UniProt Q96NX5)
[2] = target: CAMK2G (human) (UniProt Q13555)
[3] = target: CDK3 (human) (UniProt Q00526)
[4] = target: CDKL1 (human) (UniProt Q00532)
[5] = target: CHEK1 (human) (UniProt O14757)
[6] = target: CIT (human) (UniProt O14578)
[7] = system: CPK1 (P.falciparum)
[8] = target: CSNK1D (human) (UniProt P48730)
[9] = target: EPHB3 (human) (UniProt P54753)
[10] = target: FLT4 (human) (UniProt P35916)
[11] = target: GSK3A (human) (UniProt P49840)
[12] = target: HCK (human) (UniProt P08631)
[13] = target: HIPK4 (human) (UniProt Q8NE63)
[14] = target: IRAK1 (human) (UniProt P51617)
[15] = system: KIT (human), P10721 [D816H]
[16] = target: LATS2 (human) (UniProt Q9NRM7)
[17] = target: LIMK1 (human) (UniProt P53667)
[18] = target: LYN (human) (UniProt P07948)
[19] = target: MAP3K5 (human) (UniProt Q99683)
[20] = target: MAP3K6 (human) (UniProt O95382)
[21] = target: MAPK7 (human) (UniProt Q13164)
[22] = target: MET (human) (UniProt P08581)
[23] = system: MET (human), P08581 [M1250T]
[24] = target: MKNK2 (human) (UniProt Q9HBH9)
[25] = target: MYLK (human) (UniProt Q15746)
[26] = target: MYLK2 (human) (UniProt Q9H1R3)
[27] = target: PDGFRA (human) (UniProt P16234)
[28] = target: PKMYT1 (human) (UniProt Q99640)
[29] = target: PKN2 (human) (UniProt Q16513)
[30] = target: PLK1 (human) (UniProt P53350)
[31] = target: PLK3 (human) (UniProt Q9H4B4)
[32] = target: PRKCI (human) (UniProt P41743)
[33] = target: PRKG2 (human) (UniProt Q13237)
[34] = target: RET (human) (UniProt P07949)
[35] = target: ROS1 (human) (UniProt P08922)
[36] = target: RPS6KA5 KD2 (human) (UniProt O75582)
[37] = target: SGK3 (human) (UniProt Q96BR1)
[38] = target: SNRK (human) (UniProt Q9NRH2)
[39] = target: STK32A (human) (UniProt Q8WU08)
[40] = target: STK32B (human) (UniProt Q9NY57)
[41] = target: ULK3 (human) (UniProt Q6PHR2)

Sequence of LYN (human) (P07948 whole entry, looked up): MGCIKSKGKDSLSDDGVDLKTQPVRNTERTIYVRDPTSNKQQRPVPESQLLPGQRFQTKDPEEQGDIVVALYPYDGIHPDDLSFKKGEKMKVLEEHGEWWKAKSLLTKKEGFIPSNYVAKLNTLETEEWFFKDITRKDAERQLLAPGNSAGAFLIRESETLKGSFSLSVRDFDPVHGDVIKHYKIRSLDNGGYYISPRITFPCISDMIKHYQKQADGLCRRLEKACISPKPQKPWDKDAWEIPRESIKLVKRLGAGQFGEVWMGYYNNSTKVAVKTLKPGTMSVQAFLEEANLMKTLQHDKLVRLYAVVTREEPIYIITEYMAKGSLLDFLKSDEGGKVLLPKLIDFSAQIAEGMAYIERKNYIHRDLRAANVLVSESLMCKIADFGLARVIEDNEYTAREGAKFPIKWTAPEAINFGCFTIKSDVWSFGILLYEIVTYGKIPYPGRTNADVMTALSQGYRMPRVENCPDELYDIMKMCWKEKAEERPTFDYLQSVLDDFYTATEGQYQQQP
Sequence of KIT (human), P10721 [D816H] (P10721 whole entry D816H, looked up): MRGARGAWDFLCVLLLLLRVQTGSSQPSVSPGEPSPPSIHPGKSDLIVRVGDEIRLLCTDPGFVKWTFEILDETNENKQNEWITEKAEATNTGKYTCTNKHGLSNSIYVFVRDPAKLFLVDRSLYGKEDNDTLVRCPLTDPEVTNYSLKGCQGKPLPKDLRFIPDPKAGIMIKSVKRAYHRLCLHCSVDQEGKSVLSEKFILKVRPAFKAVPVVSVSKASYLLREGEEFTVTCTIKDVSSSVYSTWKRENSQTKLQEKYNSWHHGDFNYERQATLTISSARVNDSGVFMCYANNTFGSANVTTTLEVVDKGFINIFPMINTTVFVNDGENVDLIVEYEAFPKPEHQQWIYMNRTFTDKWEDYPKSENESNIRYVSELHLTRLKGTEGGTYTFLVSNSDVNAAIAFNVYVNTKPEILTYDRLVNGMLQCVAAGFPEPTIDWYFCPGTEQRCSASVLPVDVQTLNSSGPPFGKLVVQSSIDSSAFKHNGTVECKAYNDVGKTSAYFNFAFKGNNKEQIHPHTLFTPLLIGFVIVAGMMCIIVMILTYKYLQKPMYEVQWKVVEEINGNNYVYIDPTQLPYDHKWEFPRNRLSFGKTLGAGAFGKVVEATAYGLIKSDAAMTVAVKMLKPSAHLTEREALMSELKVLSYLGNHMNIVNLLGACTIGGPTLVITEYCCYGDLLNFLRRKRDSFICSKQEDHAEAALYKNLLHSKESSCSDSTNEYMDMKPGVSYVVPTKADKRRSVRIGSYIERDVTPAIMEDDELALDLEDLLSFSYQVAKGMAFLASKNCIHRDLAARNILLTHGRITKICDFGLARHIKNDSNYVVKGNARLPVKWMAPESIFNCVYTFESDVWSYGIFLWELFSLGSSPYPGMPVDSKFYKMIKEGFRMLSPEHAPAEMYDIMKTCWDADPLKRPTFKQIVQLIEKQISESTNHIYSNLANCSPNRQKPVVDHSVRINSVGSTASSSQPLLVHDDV
Sequence of CHEK1 (human) (O14757 whole entry, looked up): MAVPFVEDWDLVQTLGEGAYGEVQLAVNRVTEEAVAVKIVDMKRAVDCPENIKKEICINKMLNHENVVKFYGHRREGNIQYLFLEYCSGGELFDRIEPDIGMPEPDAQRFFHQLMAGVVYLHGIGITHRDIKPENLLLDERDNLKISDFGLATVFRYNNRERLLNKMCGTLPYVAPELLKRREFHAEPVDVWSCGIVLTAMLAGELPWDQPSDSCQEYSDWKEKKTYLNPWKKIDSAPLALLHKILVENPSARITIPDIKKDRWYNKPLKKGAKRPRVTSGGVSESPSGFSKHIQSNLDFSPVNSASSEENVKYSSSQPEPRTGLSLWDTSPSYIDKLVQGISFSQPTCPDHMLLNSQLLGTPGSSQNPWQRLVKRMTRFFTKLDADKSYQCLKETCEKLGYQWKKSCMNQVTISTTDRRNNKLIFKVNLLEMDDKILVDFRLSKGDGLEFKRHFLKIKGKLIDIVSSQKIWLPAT
Sequence of PKMYT1 (human) (Q99640 whole entry, looked up): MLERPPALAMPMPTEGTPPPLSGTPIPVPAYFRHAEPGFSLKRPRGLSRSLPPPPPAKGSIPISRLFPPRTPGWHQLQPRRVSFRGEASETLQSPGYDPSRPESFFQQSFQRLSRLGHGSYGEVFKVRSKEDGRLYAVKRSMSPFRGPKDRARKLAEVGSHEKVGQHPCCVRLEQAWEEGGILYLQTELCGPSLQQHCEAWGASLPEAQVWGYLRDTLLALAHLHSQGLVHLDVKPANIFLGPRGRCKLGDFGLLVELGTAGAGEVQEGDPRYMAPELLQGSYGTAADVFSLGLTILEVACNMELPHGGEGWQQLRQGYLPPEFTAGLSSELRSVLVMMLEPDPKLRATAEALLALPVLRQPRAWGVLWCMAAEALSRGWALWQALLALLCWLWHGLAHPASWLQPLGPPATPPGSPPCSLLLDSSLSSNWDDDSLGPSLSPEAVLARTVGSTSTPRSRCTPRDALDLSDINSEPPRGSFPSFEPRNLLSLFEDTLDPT
Sequence of RPS6KA5 KD2 (human) (O75582 whole entry, looked up): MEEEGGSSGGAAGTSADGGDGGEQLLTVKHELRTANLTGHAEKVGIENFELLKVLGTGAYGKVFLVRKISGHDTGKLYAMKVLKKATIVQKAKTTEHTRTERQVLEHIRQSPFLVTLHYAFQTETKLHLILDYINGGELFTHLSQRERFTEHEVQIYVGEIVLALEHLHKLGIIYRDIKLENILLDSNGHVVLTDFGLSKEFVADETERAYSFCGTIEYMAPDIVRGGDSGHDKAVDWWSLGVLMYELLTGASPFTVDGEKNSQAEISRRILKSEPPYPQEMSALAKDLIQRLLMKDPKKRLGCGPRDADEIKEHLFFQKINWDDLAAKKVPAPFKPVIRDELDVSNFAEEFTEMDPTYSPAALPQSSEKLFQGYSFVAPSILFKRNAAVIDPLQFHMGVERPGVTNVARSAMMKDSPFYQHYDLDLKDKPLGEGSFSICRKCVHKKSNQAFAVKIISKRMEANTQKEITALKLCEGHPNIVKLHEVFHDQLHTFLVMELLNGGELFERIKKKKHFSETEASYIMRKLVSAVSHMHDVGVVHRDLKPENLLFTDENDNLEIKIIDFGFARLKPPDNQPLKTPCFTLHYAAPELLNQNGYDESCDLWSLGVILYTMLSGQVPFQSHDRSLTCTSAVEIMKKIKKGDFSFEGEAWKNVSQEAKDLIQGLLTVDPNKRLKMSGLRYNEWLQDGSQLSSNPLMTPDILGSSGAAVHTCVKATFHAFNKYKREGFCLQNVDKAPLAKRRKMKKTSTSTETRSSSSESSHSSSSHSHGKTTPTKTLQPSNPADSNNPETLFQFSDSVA
Sequence of PRKCI (human) (P41743 whole entry, looked up): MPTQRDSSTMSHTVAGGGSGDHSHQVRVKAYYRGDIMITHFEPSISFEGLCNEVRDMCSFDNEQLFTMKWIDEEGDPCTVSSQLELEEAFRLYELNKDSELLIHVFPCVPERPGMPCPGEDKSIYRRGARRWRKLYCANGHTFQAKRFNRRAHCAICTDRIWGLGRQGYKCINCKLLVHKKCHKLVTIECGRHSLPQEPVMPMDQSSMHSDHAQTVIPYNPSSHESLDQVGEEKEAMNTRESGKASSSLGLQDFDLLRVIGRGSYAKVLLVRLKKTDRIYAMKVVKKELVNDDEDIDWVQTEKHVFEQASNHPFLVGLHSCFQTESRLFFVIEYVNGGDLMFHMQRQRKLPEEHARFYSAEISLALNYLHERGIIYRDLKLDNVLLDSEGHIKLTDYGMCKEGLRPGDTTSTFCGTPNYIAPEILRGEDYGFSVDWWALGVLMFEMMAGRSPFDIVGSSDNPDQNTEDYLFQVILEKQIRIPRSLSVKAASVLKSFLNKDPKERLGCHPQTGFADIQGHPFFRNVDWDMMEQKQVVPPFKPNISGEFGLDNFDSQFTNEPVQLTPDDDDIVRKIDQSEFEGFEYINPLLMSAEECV
Sequence of GSK3A (human) (P49840 whole entry, looked up): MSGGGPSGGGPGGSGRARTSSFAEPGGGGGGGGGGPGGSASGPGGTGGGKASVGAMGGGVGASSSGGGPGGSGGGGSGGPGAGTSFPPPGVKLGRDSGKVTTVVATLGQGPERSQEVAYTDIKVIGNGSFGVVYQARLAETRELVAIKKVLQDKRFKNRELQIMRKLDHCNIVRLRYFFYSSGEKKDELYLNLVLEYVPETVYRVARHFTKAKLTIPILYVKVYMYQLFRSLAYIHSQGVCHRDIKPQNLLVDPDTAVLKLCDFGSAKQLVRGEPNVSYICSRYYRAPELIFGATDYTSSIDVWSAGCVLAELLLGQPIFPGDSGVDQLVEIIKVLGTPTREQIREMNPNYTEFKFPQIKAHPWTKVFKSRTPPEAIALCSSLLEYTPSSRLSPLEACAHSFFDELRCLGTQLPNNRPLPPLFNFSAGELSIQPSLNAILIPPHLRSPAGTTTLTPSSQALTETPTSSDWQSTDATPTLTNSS
Sequence of MYLK2 (human) (Q9H1R3 whole entry, looked up): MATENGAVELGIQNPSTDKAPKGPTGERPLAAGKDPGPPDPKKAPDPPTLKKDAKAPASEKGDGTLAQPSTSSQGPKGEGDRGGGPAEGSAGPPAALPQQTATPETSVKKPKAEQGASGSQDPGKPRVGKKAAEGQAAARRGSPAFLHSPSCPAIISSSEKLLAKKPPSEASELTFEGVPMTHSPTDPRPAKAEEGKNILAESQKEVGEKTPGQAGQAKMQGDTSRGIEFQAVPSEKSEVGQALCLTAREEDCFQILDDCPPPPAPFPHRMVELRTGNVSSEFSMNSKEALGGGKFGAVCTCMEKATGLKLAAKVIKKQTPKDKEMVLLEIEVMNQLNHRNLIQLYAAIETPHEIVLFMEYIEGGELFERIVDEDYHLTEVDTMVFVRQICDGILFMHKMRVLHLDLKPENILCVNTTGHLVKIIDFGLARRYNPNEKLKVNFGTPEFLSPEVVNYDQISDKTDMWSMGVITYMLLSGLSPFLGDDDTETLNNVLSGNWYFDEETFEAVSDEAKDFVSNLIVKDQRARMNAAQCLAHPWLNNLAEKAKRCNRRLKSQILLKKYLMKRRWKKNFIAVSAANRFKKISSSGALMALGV

## C=CC(=O)Nc1ccc(C(=O)c2sc(Nc3ccc(N4CCN(C)CC4)cc3OC)nc2N)cc1
[1]
  kinase still bound, per cent of control: 8.2%
[2]
  kinase still bound, per cent of control: 1.6%
[3]
  kinase still bound, per cent of control: 88%
[4]
  kinase still bound, per cent of control: 100%
[5]
  kinase still bound, per cent of control: 73%
[6]
  kinase still bound, per cent of control: 13%
[7]
  kinase still bound, per cent of control: 74%
[8]
  kinase still bound, per cent of control: 72%
[9]
  kinase still bound, per cent of control: 76%
[10]
  kinase still bound, per cent of control: 100%
[11]
  kinase still bound, per cent of control: 67%
[12]
  kinase still bound, per cent of control: 100%
[13]
  kinase still bound, per cent of control: 4.6%
[14]
  kinase still bound, per cent of control: 41%
[15]
  kinase still bound, per cent of control: 70%
[16]
  kinase still bound, per cent of control: 100%
[17]
  kinase still bound, per cent of control: 79%
[18]
  kinase still bound, per cent of control: 100%
[19]
  kinase still bound, per cent of control: 100%
[20]
  kinase still bound, per cent of control: 84%
[21]
  kinase still bound, per cent of control: 9.8%
[22]
  kinase still bound, per cent of control: 83%
[23]
  kinase still bound, per cent of control: 91%
[24]
  kinase still bound, per cent of control: 29%
[25]
  kinase still bound, per cent of control: 8.6%
[26]
  kinase still bound, per cent of control: 66%
[27]
  kinase still bound, per cent of control: 100%
[28]
  kinase still bound, per cent of control: 96%
[29]
  kinase still bound, per cent of control: 100%
[30]
  kinase still bound, per cent of control: 45%
[31]
  kinase still bound, per cent of control: 7.8%
[32]
  kinase still bound, per cent of control: 26%
[33]
  kinase still bound, per cent of control: 81%
[34]
  kinase still bound, per cent of control: 100%
[35]
  kinase still bound, per cent of control: 38%
[36]
  kinase still bound, per cent of control: 7%
[37]
  kinase still bound, per cent of control: 83%
[38]
  kinase still bound, per cent of control: 0.2%
[39]
  kinase still bound, per cent of control: 52%
[40]
  kinase still bound, per cent of control: 71%
[41]
  kinase still bound, per cent of control: 35%
